Reference: patent US5856310A, “Inhibition of farnesyltransferase” (University of Pittsburgh, priority 1995, dated 1999)
Like-named read-outs stand apart in the source and are kept apart here. Peptide text beside a SMILES is read from it. * marks the point of attachment. Cbz = O=C(OCc1ccccc1)*

Key:
[1] = system: Ras oncogene-transformed EJ3 cells; assay type: cell-based, murine
Procedure: (§1) The ability of the peptides and their bis-carbobenzyloxy methyl ester derivatives (using BBM-CA1 A2 X; BBM-C-AMBA-M as examples) to inhibit tumor cell growth was determined by the well-known MTT assay. Ras oncogene-transformed EJ3 cells (a balbc 3T3 murine fibroblast (A-31) transformed with H-ras oncogene from a human bladder carcinoma) were exposed to various concentrations of peptides, peptidomimetics and their functionalized derivatives. Four days later, the percentage of live cells present relative to control was determined for each drug concentration. The extent of cell proliferation in the absence of drug was used as 100% proliferation.

[2] = system: p21ras plasma membrane association in EJ3 cells; assay: p21ras membrane association in EJ3 cells (immunoprecipitation, Western blot); assay type: cell-based, murine; conditions: FIG. 6
Excerpt: This is indicated by FIG. 6. EJ3 cells were exposed to saline, lovastatin, C-AMBA-M or BBM-C-AMBA-M and p21ras immunoprecipitated with the anti-ras antibody Y13-259 (Oncogene Science Inc.). Membrane-bound and cytosolic p21ras were separated by SDS-PAGE and Western blotted with an anti-p21ras antibody (Y13-259). Control cells (saline-treated) contained only membrane-bound p21ras.

[3] = biological target: T1, p21ras farnesyltransferase from EJ3 cells (Mus musculus, UniProt Q61239+Q8K2I1); assay: p21ras farnesyltransferase inhibition, enzyme from EJ3 cells; assay type: biochemical, murine
T1 construct: p21ras farnesyltransferase was partially purified from EJ3 cells by DEAE-chromatography; endogenous in cells; host or cells: EJ3 cells (H-ras-transformed Balb/c 3T3 murine fibroblasts)
T1 sequence (Q8K2I1 whole entry, one chain of several): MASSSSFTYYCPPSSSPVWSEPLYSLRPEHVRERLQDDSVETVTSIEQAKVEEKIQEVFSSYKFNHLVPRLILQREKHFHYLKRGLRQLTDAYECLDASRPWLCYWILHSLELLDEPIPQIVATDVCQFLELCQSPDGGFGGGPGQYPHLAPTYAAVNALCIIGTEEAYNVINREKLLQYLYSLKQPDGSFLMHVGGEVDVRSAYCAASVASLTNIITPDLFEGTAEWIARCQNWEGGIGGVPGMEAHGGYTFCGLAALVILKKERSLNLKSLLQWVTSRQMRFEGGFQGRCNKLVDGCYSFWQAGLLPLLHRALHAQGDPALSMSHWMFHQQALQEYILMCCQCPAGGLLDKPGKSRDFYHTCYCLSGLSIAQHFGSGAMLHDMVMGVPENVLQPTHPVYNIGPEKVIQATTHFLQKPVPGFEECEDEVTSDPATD
Procedure: Human colon carcinoma COLO-205 cells (ATCC, Rockville, Md.) were grown to confluency in RPMI containing 10% FBS, 1% penicillin/streptomycin at 37° C and 10% Co2 atmosphere. The cells were homogenized in lysis buffer (10 mM Hepes pH 7.4, 1 mM MgCl2, 1 mM EDTA, 0.1 mM DDT, and 0.1 mM PMSF) and centrifuged at 12,000×g followed by a 60,000×g centrifugation of the supernatant. p21ras farnesyltransferase from 60,000×g supernatant fractions was then partially purified by DEAE-sephacel chromatography where it was eluted with 50 mM Tris (pH 7.5) containing 0.4M NaCl. p21ras farnesyltransferase activity was determined by measuring the amount of [3H]FPP transferred to recombinant p21H-ras as previously described (15,16). p21H-ras was isolated from E. coli strain RRI expressing p21H-ras (Hoffman-LaRoche, Inc.) as described previously (25) except for the last step of purification where HPLC was replaced by DEAE-sephacel chromatography. For peptide inhibition studios, CA1 A2 X peptides and peptidomimetics were premixed with p21ras farnesyltransferase (40 μg) prior to adding the reaction mixture (50 Mm Tris (pH. 7.5), 50 μM ZnCl2, 20 mM KCl, 1 mM DTT, 20 μM p21H-ras, 9 mmol [3H]FPP). After incubation for one hour at 37° C., the reaction was stopped and filtered on glass fibers as described earlier (15,16). […] The results for C-AMBA-M (.quadrature.), CVIM (.circle-solid.), CIIM (Δ), CVVM (.gradient.) and VCIM (.smallcircle.) are indicated in FIG. 1. The data presented is representative of three independent experiments.
The ability of CA1 A2 X tetrapeptides, peptidomimetics and corresponding functionalized derivatives to inhibit p21ras farnesyltransferase from EJ3 cells was determined in vitro as described above (Example 9). p21ras farnesyltransferase was partially purified from EJ3 cells by DEAE-chromatography as described above (Example 9) and incubated with various concentrations of peptides and peptidomimetics. The ability of these drugs to inhibit the transfer of [3H]FPP to recombinant p21ras was determined as described (Example 9).

A-31 cells = assay: Cell growth inhibition, MTT assay, A-31 cells; assay type: cell-based, murine; conditions: concentrations of 500 μM, FIG. 7B
Procedure: as §1
An important aspect of the invention is the finding that the antitumor activity of the peptidomimetics of the invention are selective for ras-transformed cells as compared to their non-transformed parent cell line. A-31 is a normal, non-tumorigenic cell line clone from balb murine fibroblasts. EJ3 is a tumorigenic (produces tumors when injected into mice) cell line that was obtained by transforming A-31 cells with H-ras isolated from a human bladder tumor. The ability of BBM-peptides and peptidomimetics to inhibit cell growth of these two related cell lines (A-31 and EJ3) was determined by MTT assay as described above.

[4] = biological target: T2, p21ras farnesyltransferase from Burkitt's lymphoma (Daudi) (Homo sapiens, UniProt P49354+P49356); assay: p21ras farnesyltransferase activity assay, enzyme from Daudi; assay type: biochemical
T2 construct: Partially purified p21ras farnesyltransferase from human tumors; endogenous in cells; host or cells: Daudi Burkitt's lymphoma cells
T2 sequence (P49356 whole entry, one chain of several): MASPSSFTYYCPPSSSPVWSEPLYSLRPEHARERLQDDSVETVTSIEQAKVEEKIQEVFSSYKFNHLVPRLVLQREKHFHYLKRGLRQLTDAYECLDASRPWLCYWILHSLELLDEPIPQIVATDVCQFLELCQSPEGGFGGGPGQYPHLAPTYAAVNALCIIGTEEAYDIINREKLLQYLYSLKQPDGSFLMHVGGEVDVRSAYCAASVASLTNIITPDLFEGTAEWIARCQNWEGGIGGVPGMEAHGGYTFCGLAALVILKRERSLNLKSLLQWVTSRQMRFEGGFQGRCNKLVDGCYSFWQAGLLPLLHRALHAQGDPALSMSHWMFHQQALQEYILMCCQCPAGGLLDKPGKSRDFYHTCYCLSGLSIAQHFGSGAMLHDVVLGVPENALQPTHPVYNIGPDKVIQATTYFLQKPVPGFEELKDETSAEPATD
Procedure: (§2) Human colon carcinoma COLO-205 cells (ATCC, Rockville, Md.) were grown to confluency in RPMI containing 10% FBS, 1% penicillin/streptomycin at 37° C and 10% Co2 atmosphere. The cells were homogenized in lysis buffer (10 mM Hepes pH 7.4, 1 mM MgCl2, 1 mM EDTA, 0.1 mM DDT, and 0.1 mM PMSF) and centrifuged at 12,000×g followed by a 60,000×g centrifugation of the supernatant. p21ras farnesyltransferase from 60,000×g supernatant fractions was then partially purified by DEAE-sephacel chromatography where it was eluted with 50 mM Tris (pH 7.5) containing 0.4M NaCl. p21ras farnesyltransferase activity was determined by measuring the amount of [3H]FPP transferred to recombinant p21H-ras as previously described (15,16). p21H-ras was isolated from E. coli strain RRI expressing p21H-ras (Hoffman-LaRoche, Inc.) as described previously (25) except for the last step of purification where HPLC was replaced by DEAE-sephacel chromatography. For peptide inhibition studios, CA1 A2 X peptides and peptidomimetics were premixed with p21ras farnesyltransferase (40 μg) prior to adding the reaction mixture (50 Mm Tris (pH. 7.5), 50 μM ZnCl2, 20 mM KCl, 1 mM DTT, 20 μM p21H-ras, 9 mmol [3H]FPP). After incubation for one hour at 37° C., the reaction was stopped and filtered on glass fibers as described earlier (15,16).
(§3) To determine the potency of the novel peptidomimetics relative to their parent tetrapeptides, the potency of CA1 A2 X corresponding to the carboxyl terminus ends of p21 KA -ras, p21 KB -ras and p21N-ras to inhibit p21ras farnesyltransferase from human colon carcinoma (COLO-205) and Burkitt's lymphoma (Daudi) was determined.

[5] = biological target: T3, p21ras farnesyltransferase from human colon carcinoma (COLO-205) (Homo sapiens, UniProt P49354+P49356); assay: p21ras farnesyltransferase activity assay, enzyme from COLO-205; assay type: biochemical; conditions: for inhibition of p21ras farnesyltransferase (in words): human tumor enzyme (COLO-205 and Daudi), concentrations as high as 10 μM
T3 construct: p21ras farnesyltransferase from 60,000×g supernatant fractions was then partially purified by DEAE-sephacel chromatography; endogenous in cells; host or cells: COLO-205 human colon carcinoma cells (cytosolic 60,000×g supernatant, DEAE-sephacel fraction)
Procedure: as §2, §3

[6] = Table 2, ras oncogene-transformed cells, read-out: IC50 (uM) Growth Studies
[7] = Table 2, read-out: IC50 (uM) Farnesyltransferase
[8] = enzyme from EJ3 cells, FIG. 5A/5B, read-out: p21ras farnesyltransferase IC50
[9] = MTT, four days, FIG. 4A/4B, read-out: EJ3 cell growth inhibition IC50
[10] = partially purified enzyme from Daudi, transfer of farnesyl to recombinant p21 H-ras, read-out: IC50 (μM) Daudi
[11] = read-out: IC50, p21ras farnesyltransferase from Daudi
[12] = partially purified enzyme from COLO-205, transfer of farnesyl to recombinant p21 H-ras, read-out: IC50 (μM) COLO-205

| Compound | IC50 [3, 7] [µM] | IC50 [4, 10] [µM] | IC50 [5, 12] [µM] | IC50 [1, 6] [µM] | also measured |
| --- | --- | --- | --- | --- | --- |
| O=C(N[C@@H](CSC(=O)OCc1ccccc1)C(=O)O)OCc1ccccc1 [BB-Cys, N S-DiCBZ-cysteine] |  |  |  | 275 ± 41 |  |
| COC(=O)[C@H](CCSC)NC(=O)c1cccc(CNC(=O)[C@H](CSC(=O)OCc2ccccc2)NC(=O)OCc2ccccc2)c1 [BBM-C-AMBA-M, N, S-DiCBZ-Cys-AMBA-Met-OCH3] | > 100 |  |  | 12.1 ± 1 | inhibition of p21ras plasma membrane association (in words) [2]: inhibited p21ras plasma membrane association; IC50 [3, 8]: > 100 µM; effect on A-31 cell growth (in words) (A-31 cells): not much affected; IC50 [1, 9]: 10 µM; IC50 ([1]; MTT, selectivity study, FIG. 7A/7B, read-out: EJ3 cell growth inhibition IC50): 20 µM |
| CC[C@H](C)[C@H](NC(=O)[C@@H](NC(=O)[C@H](CSC(=O)OCc1ccccc1)NC(=O)OCc1ccccc1)C(C)C)C(=O)N[C@@H](CCSC)C(=O)OC [BBM-CVIM] (Cbz-C(Cbz)VIM-OMe) | > 100 |  |  |  | IC50 [3, 8]: > 10 µM |
| CC[C@H](C)[C@H](NC(=O)[C@@H](NC(=O)[C@H](CSC(=O)OCc1ccccc1)NC(=O)OCc1ccccc1)C(C)C)C(=O)N[C@@H](CCSC)C(=O)OC [BBM-VCIM] (Cbz-C(Cbz)VIM-OMe) |  |  |  | 215 ± 66 |  |
| N[C@@H](CS)C(=O)NCc1cccc(C(=O)N[C@@H](Cc2ccccc2)C(=O)O)c1 [C-AMBA-F, Cys-AMBA-Phe] |  | 0.6 | 0.53 |  | IC50 [4, 11]: 0.6 µM |
| NCCCC[C@H](NC(=O)c1cccc(CNC(=O)[C@@H](N)CS)c1)C(=O)O [C-AMBA-K, Cys-AMBA-Lys] |  | > 10 | > 10 |  | inhibition of p21ras farnesyltransferase (in words) [5]: abolished p21ras farnesyltransferase inhibition activity |
| CC(C)C[C@H](NC(=O)c1cccc(CNC(=O)[C@@H](N)CS)c1)C(=O)O [C-AMBA-L, Cys-AMBA-Leu] |  | > 10 | > 10 |  | inhibition of p21ras farnesyltransferase (in words) [5]: had no inhibitory activity |
| CC[C@H](C)C(=O)O[C@H]1C[C@@H](C)C=C2C=C[C@H](C)[C@H](CC[C@@H]3C[C@@H](O)CC(=O)O3)[C@H]21 [Lovastatin, reference compound] |  |  |  |  | inhibition of p21ras plasma membrane association (in words) [2]: inhibited p21ras membrane association |
| CC[C@H](C)[C@H](NC(=O)[C@H](CS)NC(=O)[C@@H](N)C(C)C)C(=O)N[C@@H](CCSC)C(=O)O [VCIM, reference compound] (H-VCIM-OH) | 40 | > 10 | > 10 |  | IC50 [3, 8]: > 10 µM |
| Cys-AMBA-Glu [C-AMBA-E] |  | 1.54 | 1.42 |  | reduction of ability to inhibit the enzyme relative to Cys-AMBA-Met ([4]; Daudi): 13 fold; reduction of ability to inhibit the enzyme relative to Cys-AMBA-Met ([5]; COLO-205): 24 fold |

Further lines, with some results ahead:

| IC50 [3, 7] [µM] | IC50 [4, 10] [µM] | IC50 [5, 12] [µM] | Compound | IC50 [1, 6] [µM] | also measured |
| --- | --- | --- | --- | --- | --- |
| 3.1 |  | 0.06 | CSCC[C@H](NC(=O)c1cccc(CNC(=O)[C@@H](N)CS)c1)C(=O)O [C-AMBA-M, Cys-AMBA-Met] | 627 ± 178 | inhibition of p21ras plasma membrane association (in words) [2]: did not inhibit p21ras plasma association; increase in potency over CIIM ([4]; Daudi): 6.9 fold; increase in potency over CVIM ([4]; Daudi): 1.6 fold; increase in potency over CVVM ([4]; Daudi): 5.1 fold; IC50 [4, 11]: 0.12 µM; IC50 [3, 8]: 2 µM; increase in potency over CIIM ([5]; COLO-205): 8.8 fold; increase in potency over CVIM ([5]; COLO-205): 3.3 fold; increase in potency over CVVM ([5]; COLO-205): 7.7 fold; IC50 ([5]; read-out: IC50, p21ras farnesyltransferase from COLO-205): 0.06 µM; IC50 [1, 9]: 1500 µM |
|  | 0.83 | 0.53 | CC[C@H](C)[C@H](NC(=O)[C@@H](NC(=O)[C@@H](N)CS)[C@@H](C)CC)C(=O)N[C@@H](CCSC)C(=O)O [CIIM, reference compound] (H-CIIM-OH) |  |  |
| 0.35 |  |  | CC[C@H](C)[C@H](NC(=O)[C@@H](NC(=O)[C@@H](N)CS)C(C)C)C(=O)N[C@@H](CCSC)C(=O)O [CVIM, Cys-Val-Ile-Met, reference compound] (H-CVIM-OH) |  | IC50 [4, 11]: 0.19 µM; IC50 ([3]; enzyme from EJ3 cells, FIG. 5A, read-out: p21ras farnesyltransferase IC50): 0.4 µM |
|  | 0.61 | 0.46 | CSCC[C@H](NC(=O)[C@@H](NC(=O)[C@@H](NC(=O)[C@@H](N)CS)C(C)C)C(C)C)C(=O)O [CVVM, Cys-Val-Val-Met, reference compound] (H-CVVM-OH) |  |  |
| 4.5 |  |  | CC[C@H](C)[C@H](NC(=O)[C@@H](NC(=O)[C@@H](N)CS)C(C)C)C(=O)N[C@@H](CCSC)C(=O)OC [M-CVIM] (HELM PEPTIDE1{C.V.I.M.[CO[*:1]]}$$$$V2.0) | 200 ± 58 |  |
|  | > 10 | > 10 | Ser-AMBA-Met [S-AMBA-M] |  | inhibition of p21ras farnesyltransferase (in words) [5]: did not inhibit |
